Measured values: patent US7528126B2, “Pyrrolobenzodiazepines” (Spirogen Limited, priority 2004, dated 2009)
Converted amounts (≈) assume the structure as drawn.

Key:
[1] = test system: VRE; experiment: Antimicrobial susceptibility test (disc diffusion), VRE; assay type: cell-based, vancomycin resistant enterococci; conditions: dash = none; for Resistant %: share of VRE strains classed resistant; for Sensitive %: share of VRE strains classed sensitive
Method: (§1) Several bacterial colonies were transferred from the agar plates to bijoux containing MHB. The suspension is incubated at 35° C. and subsequently diluted down in sterile saline to match the density of a McFarland standard solution. A sterile cotton swab is then dipped in the bacterial inoculum and pressed against the bijou walls to remove any excess solution. MHA plates are then thoroughly streaked with the swab three times, turning the plate 60° each time. The discs are placed onto the inoculated plate within 15 minutes. The positions of the discs should allow enough space (≈24 mm) around each individual disc in order to measure the diffusion diameter at a later stage. The plates were incubated immediately at 35° C. for 16-18 hours for all organisms excluding VRE, and MRSA, which require a 24-hour incubation. The experiment was valid if there was a confluent bacterial growth, not single colonies, and circular inhibition zones were evident. Clear zones produced around the disc were measured with a ruler and interpreted according to the tables provided by the NCCLS. Bacteria were classified as sensitive, intermediate or resistant.

[2] = test system: Streptococcus pyogenes; experiment: Antimicrobial susceptibility test (disc diffusion), Streptococcus pyogenes; assay type: cell-based; conditions: dash = none; for Sensitive %: share of Streptococcus pyogenes strains classed sensitive
Method: as §1

[3] = test system: Streptococcus agalactiae; experiment: Antimicrobial susceptibility test (disc diffusion), Streptococcus agalactiae; assay type: cell-based; conditions: dash = none; for Sensitive %: share of Streptococcus agalactiae strains classed sensitive; for Resistant %: share of Streptococcus agalactiae strains classed resistant
Method: as §1

[4] = test system: Listeria monocytogenes; experiment: Antimicrobial susceptibility test (disc diffusion), Listeria monocytogenes; assay type: cell-based; conditions: dash = none; for Sensitive %: share of Listeria monocytogenes strains classed sensitive; for Resistant %: share of Listeria monocytogenes strains classed resistant
Method: as §1

[5] = test system: MRSA; conditions: literature values for comparison; cited from earlier work
[6] = test system: MRSA; experiment: Antimicrobial susceptibility test (disc diffusion), MRSA; assay type: cell-based, methicillin resistant Staphylococcus aureus; conditions: for Resistant %: share of MRSA strains classed resistant; for Sensitive %: share of MRSA strains classed sensitive
Method: as §1

[7] = test system: K562 human chronic myeloid leukaemia cells; conditions: value quoted for comparison; read-out: IC50 quoted in WO 93/18045; cited from earlier work

Row | Compound | Resistant % [1] [%] | Sensitive % [1] [%] | Sensitive % [2] [%] | Sensitive % [3] [%] | Sensitive % [4] [%] | further results
1 | CC[C@H]1OC(=O)[C@H](C)[C@@H](O[C@H]2C[C@@](C)(OC)[C@@H](O)[C@H](C)O2)[C@H](C)[C@@H](O[C@@H]2O[C@H](C)C[C@H](N(C)C)[C@H]2O)[C@](C)(O)C[C@@H](C)C(=O)[C@H](C)[C@@H](O)[C@]1(C)O [Erythromycin] | 90 | 10 | 100 | 100 | 100 | –
2 | Cc1onc(-c2ccccc2)c1C(=O)N[C@@H]1C(=O)N2[C@@H]1SC(C)(C)[C@@H]2C(=O)O [Oxacillin] | 100 | – | 100 | 100 | – | Resistant % [4]: 100%
3 | synercid | – | – | – | – | – | MIC in MRSA [5]: ~0.5 µg/mL
4 | Gentamicin | 80 | 20 | 100 | – | 100 | Intermediate % ([6]; share of MRSA strains classed intermediate, dash = none): 8%; Resistant % ([6]; dash = none): 70%; Sensitive % ([6]; dash = none): 22%; Resistant % [3]: 100%
5 | CO[C@H]1/C=C/O[C@@]2(C)Oc3c(C)c(O)c4c(O)c(c(/C=N/N5CCN(C)CC5)c(O)c4c3C2=O)NC(=O)/C(C)=C\C=C\[C@H](C)[C@H](O)[C@@H](C)[C@@H](O)[C@@H](C)[C@H](OC(C)=O)[C@@H]1C [Rifampicin] | – | – | 100 | 100 | 100 | –
6 | CCC[C@@H]1C[C@@H](C(=O)N[C@@H]([C@H]2O[C@H](SC)[C@H](O)[C@@H](O)[C@H]2O)[C@H](C)Cl)N(C)C1 [Clindamycin] | 85 | 15 | 100 | 100 | – | Resistant % [4]: 100%
7 | CC(=O)NC[C@H]1CN(c2ccc(N3CCOCC3)c(F)c2)C(=O)O1 [linezolid] | – | – | – | – | – | MIC in MRSA [5]: ~1 µg/mL (≈ 2.96 µM)
8 | CN[C@H](CC(C)C)C(=O)N[C@H]1C(=O)N[C@@H](CC(N)=O)C(=O)N[C@H]2C(=O)N[C@H]3C(=O)N[C@H](C(=O)N[C@H](C(=O)O)c4cc(O)cc(O)c4-c4cc3ccc4O)[C@H](O)c3ccc(c(Cl)c3)Oc3cc2cc(c3O[C@@H]2O[C@H](CO)[C@@H](O)[C@H](O)[C@H]2O[C@H]2C[C@](C)(N)[C@H](O)[C@H](C)O2)Oc2ccc(cc2Cl)[C@H]1O [Vancomycin] | 100 | – | 100 | 100 | 100 | susceptibility of all MRSA strains used ([6]; in words, summary of Table 4): completely susceptible; MIC in MRSA [5]: about 2 mg/L
9 | COc1cc(Cc2cnc(N)nc2N)cc(OC)c1OC [Trimethophrim] | 75 | 25 | 100 | 100 | 100 | Resistant % ([6]; dash = none): 32%; Sensitive % ([6]; dash = none): 68%
10 | CN(C)[C@@H]1C(O)=C(C(N)=O)C(=O)[C@@]2(O)C(O)=C3C(=O)c4c(O)cccc4[C@@](C)(O)[C@H]3C[C@@H]12 [Tetracycline] | 60 | 40 | 100 | 10 | 100 | Resistant % [3]: 90%
11 | NCC[C@H](O)C(=O)N[C@@H]1C[C@H](N)[C@@H](O[C@H]2O[C@H](CN)[C@@H](O)[C@H](O)[C@H]2O)[C@H](O)[C@H]1O[C@H]1O[C@H](CO)[C@@H](O)[C@H](N)[C@H]1O [Amikacin] | – | – | – | – | 100 | Resistant % ([2]; share of Streptococcus pyogenes strains classed resistant): 100%; Resistant % [3]: 100%
12 | CC=C1C[C@H]2C=Nc3cc(OCCCOc4cc5c(cc4OC)C(=O)N4CC(=CC)C[C@H]4C=N5)c(OC)cc3C(=O)N2C1 [Example 6 in WO 93/18045] | – | – | – | – | – | IC50 [7]: 10 nM
